29 sequences from the supplement of paper PMC11208160 can be followed below.
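Also: IS621 bridge recombinase in Escherichia coli cells against a fixed T5 target plasmid.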

A short description of this data set: recombinant UMI read abundance after kanamycin selection (control-corrected) (log10(CPM+1)); higher = more efficient recombination; extreme values may be limits of the assay; sequences stand for … in AGTGCAGAGAAAATCGGCCAGTTTTCTCTGCCTGCAGTCCGCATGCCGTGGGACCCCTTGGGTTCTAACCTGTTGCCTAGATTTATGCAGCGGACTGCCTTTCTCCCAAAGTGATAAACCGG…AGGTTGGTTTCACT; site = the 11-nt donor. An outline of the steps: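 In Escherichia coli, a pool of donor and donor-binding-loop pairs, each with a 12-nt UMI, was tested for the IS621 bridge recombinase. Plating was on IPTG (0.07 mM) plus kanamycin, or without selection, in two replicates. Recombinant UMIs were amplified by PCR across the donor–target junction and sequenced, and counts were reported as log10(CPM+1) after averaging and control-derived scaling.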
On to “CTAGTTTCATGGACCGGTTTTCCCGGTAATCCGTATTTGAC (site CTAGTCTCTGT)”, for which the “recombinant UMI read abundance (log10)” value stood at 1.74.

Turning to “CTAGTTTCATGGACCGGTTTTCCCGGTAATCCGTATTTGAC (site CTAGTGTCTGT)”, the “recombinant UMI read abundance (log10)” value is 0.

With “CTAGTTTCATGGACCGGTTTTCCCGGTAATCCGTATTTGAC (site CTAGTTTCTGT)”, the “recombinant UMI read abundance (log10)” value amounted to 2.05.

“CTATAACCATGGACCGGTTTTCCCGGTAATCCGTATTTGGA (site CTATAACCTTC)”: the “recombinant UMI read abundance (log10)” value was 0.0031.

In the case of “CTATCATCATGGACCGGTTTTCCCGGTAATCCGTATTTGCT (site CAATCATCTAG)”, the “recombinant UMI read abundance (log10)” value is 0.957.

Take “CTATCATCATGGACCGGTTTTCCCGGTAATCCGTATTTGCT (site CCATCATCTAG)”: the “recombinant UMI read abundance (log10)” value is 0.932.

As to “CTATCATCATGGACCGGTTTTCCCGGTAATCCGTATTTGCT (site CGATCATCTAG)”, the “recombinant UMI read abundance (log10)” value stood at 0.

In the case of “CTATCATCATGGACCGGTTTTCCCGGTAATCCGTATTTGCT (site CTATCATCTAG)”, the “recombinant UMI read abundance (log10)” value is 2.06.

For “CTATCGACATGGACCGGTTTTCCCGGTAATCCGTATTTGTT (site CAATCGACTAA)”, the “recombinant UMI read abundance (log10)” value came to 0.0124.

Turning to “CTATCGACATGGACCGGTTTTCCCGGTAATCCGTATTTGTT (site CCATCGACTAA)”, the “recombinant UMI read abundance (log10)” value is 0.0135.

As for “CTATCGACATGGACCGGTTTTCCCGGTAATCCGTATTTGTT (site CGATCGACTAA)”, the “recombinant UMI read abundance (log10)” value was 0.0084.

Take “CTATCGACATGGACCGGTTTTCCCGGTAATCCGTATTTGTT (site CTATCGACTAA)”: the “recombinant UMI read abundance (log10)” value stood at 1.1.

As for “CTATGACCATGGACCGGTTTTCCCGGTAATCCGTATTTGAG (site CTATGACCTCT)”, the “recombinant UMI read abundance (log10)” value stood at 0.00436.

Take “CTATGATCATGGACCGGTTTTCCCGGTAATCCGTATTTGAC (site CTAGTATCTGT)”: the “recombinant UMI read abundance (log10)” value came out at 0.

As to “CTATGATCATGGACCGGTTTTCCCGGTAATCCGTATTTGAC (site CTATGATCTGT)”, the “recombinant UMI read abundance (log10)” value was determined as 2.73.

Regarding “CTATGCACATGGACCGGTTTTCCCGGTAATCCGTATTTGTA (site ATATGCACTTA)”, the “recombinant UMI read abundance (log10)” value is 0.00544.

As for “CTATGCACATGGACCGGTTTTCCCGGTAATCCGTATTTGTA (site CTATGCACTTA)”, the “recombinant UMI read abundance (log10)” value amounted to 1.82.

With “CTATGCACATGGACCGGTTTTCCCGGTAATCCGTATTTGTA (site GTATGCACTTA)”, the “recombinant UMI read abundance (log10)” value was determined as 0.00869.

Take “CTATGCACATGGACCGGTTTTCCCGGTAATCCGTATTTGTA (site TTATGCACTTA)”: the “recombinant UMI read abundance (log10)” value amounted to 0.013.

Take “CTATGTTCATGGACCGGTTTTCCCGGTAATCCGTATTTGTC (site CTATGTTCTGA)”: the “recombinant UMI read abundance (log10)” value is 2.29.

With “CTATTATCATGGACCGGTTTTCCCGGTAATCCGTATTTGAA (site CTATTATCTTT)”, the “recombinant UMI read abundance (log10)” value was 1.79.

Turning to “CTATTATCATGGACCGGTTTTCCCGGTAATCCGTATTTGGC (site CTAGTATCTGT)”, the “recombinant UMI read abundance (log10)” value is 0.

In the case of “CTATTATCATGGACCGGTTTTCCCGGTAATCCGTATTTGGC (site CTATTATCTGC)”, the “recombinant UMI read abundance (log10)” value was found to be 2.56.

As to “CTATTTCCATGGACCGGTTTTCCCGGTAATCCGTATTTGCG (site CTATTTCCTCG)”, the “recombinant UMI read abundance (log10)” value is 0.264.

“CTCAAATCATGGACCGGTTTTCCCGGTAATCCGTATTTGAA (site CTCAAATCTTT)”: the “recombinant UMI read abundance (log10)” value was found to be 0.789.

For “CTCAATCCATGGACCGGTTTTCCCGGTAATCCGTATTTGTT (site CGGAATCCTAA)”, the “recombinant UMI read abundance (log10)” value was 0.

For “CTCAATCCATGGACCGGTTTTCCCGGTAATCCGTATTTGTT (site CTCAATCCTAA)”, the “recombinant UMI read abundance (log10)” value is 1.41.

As to “CTCAATGCATGGACCGGTTTTCCCGGTAATCCGTATTTGGG (site CTCAATGCTCC)”, the “recombinant UMI read abundance (log10)” value is 0.

“CTCAGATCATGGACCGGTTTTCCCGGTAATCCGTATTTGCA (site CTCAGATCTTG)”: the “recombinant UMI read abundance (log10)” value worked out at 1.82.
